In patent US20230142274A1 (SIMCERE PHARMACEUTICAL CO., LTD., priority 2020, published 2023):

What was measured:
[1] = test system: Daudi cells; test: Inhibition of human Daudi lymphoma cell proliferation (Cell-Titer Glo); type: cell-based; conditions: Homo sapiens, 72 h, 3 days incubation, read-out: Anti-Proliferative Activity Against Daudi cells IC50
Outline: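 Daudi cells in RPMI 1640 with 10% FBS were seeded and grown 24 h, then exposed for 3 days (37 °C, 5% CO2) to 10-point 3-fold serial dilutions at 0.25% final DMSO. Viability was read by CellTiter-Glo ATP luminescence, and IC50 was fitted from % inhibition against top/bottom controls.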

[2] = test system: WI-38 cells; test: Inhibition of human WI-38 embryonic lung cell proliferation (Cell-Titer Glo); type: cell-based; conditions: Homo sapiens, 72 h, 3 days incubation, read-out: Anti-Proliferative Activity Against WI-38 cells IC50
Method: Introduction of the experimental principle: After the RAD51 inhibitor to be tested was co-incubated with human embryonic lung cells for a period of time, the influence of the test compound on cell proliferation was measured by a method for counting cell proliferation based on the quantitative measurement of intracellular ATP content.
Materials and Cells: WI-38 cells were purchased from ATCC; fetal bovine serum, 1640 medium and penicillin-streptomycin were purchased from Gibco Inc. (U.S.), 96-well plates were purchased from Corning Inc. (U.S.), and Cell-Titer Glo reagent was purchased from Promega Corporation (U.S.).
Cell culture: WI-38 cells were cultured in an EMEM culture medium containing 10% fetal bovine serum and 1% penicillin-streptomycin at 37° C. in an atmosphere containing 5% CO2. Cells in logarithmic growth phase could be used for experiments.
Assay of cell proliferation and viability: Cell-Titer Glo reagent was used to measure the inhibitory activities of the compounds on the proliferation of WI-38 cell strain. The concentration of cells was adjusted, and the cells were seeded in a 96-well plate and cultured at 37° C. in an atmosphere containing 5% CO2 for 24 hours. The powder of the compound was dissolved in 100% DMSO to form a 10 mM solution. 10 μl of the solution of the compound was aspirated and transferred into a 96-well compound plate containing 20 μl of DMSO solution in each well for 3-fold dilution and was then formulated to 10 serial dilutions. Thereafter, 2 μl of the solution of the compound was aspirated from the corresponding well and added correspondingly into a 96-well intermediate compound dilution plate containing 78 μl of complete culture medium in each well. The resultant was mixed well, and the plate was centrifuged at 1000 rpm for 1 minute. Finally, 10 μl of the solution of the compound was aspirated from the corresponding well of the 96-well intermediate compound dilution plate, and transferred into the corresponding well of the cell culture plate containing 90 μl of complete culture medium. The final concentration of DMSO was 0.25%. After the addition of the compound, the cells were continued to be incubated for 3 days at 37° C. in an atmosphere containing 5% CO2. Cell-Titer Glo reagent was added to measure cell viability.
% Compound inhibition was calculated and IC50 of the compound was fitted;
% Compound inhibition=1−100%×(Signal−Bottom)/(Top−Bottom)

[3] = Pharmacokinetic experiment in mouse; type: in vivo; conditions: female CB17-SCID mice, oral dose 25 mg/kg
Text: CB17-SCID mice were purchased from Beijing Vital River Laboratory Animal Technology Co., Ltd.
DMSO, HP-β-CD (hydroxypropyl-β-cyclodextrin), PEG400 (polyethylene glycol 400), and Vitamin E TPGS (D-α-tocopherol polyethylene glycol 1000 succinate) were purchased from Sigma.
Six female CB17-SCID mice (20 g to 30 g, aged 4 to 6 weeks) were divided randomly into two groups, with 3 mice in each group. In Group 1, the compound in a vehicle of an aqueous solution containing 5% dimethyl sulfoxide and 95% hydroxypropyl-β-cyclodextrin (10%, w/v) was administered by intravenous injection via tail vein. In Group 2, a corresponding dose of the compound in a vehicle of an aqueous solution containing 30% polyethylene glycol 400 and 70% D-α-tocopherol polyethylene glycol 1000 succinate (10%, w/v) was orally administered. The animals were fed normally with food and water before experiment. The mice in each group underwent intravenous blood collection before administration and at 0.083 h (intravenous injection group only), 0.25 h, 0.5 h, 1 h, 2 h, 4 h, 6 h, 8 h, and 24 h after administration. The collected whole blood samples were placed in K2EDTA anticoagulation tubes and centrifuged for 5 min (4000 rpm, 4° C.) to collect the plasma for testing.
10 μL of the mouse plasma sample was taken, and 150 μL of acetonitrile solvent (containing the internal standard compound) was added to precipitate protein. After the resultant was vortexed for 0.5 min and centrifuged (4700 rpm, 4° C.) for 15 min, the supernatant was subjected to 2-fold dilution with water containing 0.05% (v/v) FA and was then subjected to quantitative measurement in LC-MS/MS system (AB Sciex Triple Quad 6500+). A calibration standard curve was prepared in CB17-SCID mouse plasma along with quality control samples to determine the plasma concentration. As for a 10× diluted sample, 2 μL of sample was taken and 18 μL of blank plasma was added. After being vortexed for 0.5 min, the mixture was added with 300 μL of acetonitrile solvent (containing the internal standard compound) so as to precipitate protein. The rest of the processing steps were the same as those for the undiluted samples.

[4] = Metabolic stability in liver microsomes (human); type: in vitro ADME; conditions: pH 7.4; Human being liver microsomes 0.5 mg/mL, compound 1 μM, NADPH 1 mM, 37° C.
Method: (§1) 1. Source of liver microsomes: human liver microsomes (Corning 452117), CD-1 mouse liver microsomes (XENOTECH M1000)
(§2) 1. Formulation of 100 mM phosphate buffer solution (PBS): 7.098 g of Na2HPO4 was weighed and ultrasonically dissolved in 500 mL of pure water to form Solution A. 3.400 g of KH2PO4 was weighed and ultrasonically dissolved in 250 mL of pure water to form Solution B. Solution A was placed in a stirrer and Solution B was slowly added until the pH value reached 7.4, thus formulating 100 mM PBS buffer solution.
(§3) The reaction system was formulated according to Table 3 below.
(§4) 3. The reaction system was placed in a water bath at 37° C. and pre-incubated for 10 minutes. 40 μL of 10 mM NADPH solution (NADPH was dissolved in 100 mM phosphate buffer solution) was added into the reaction system, and the final concentration of NADPH was 1 mM. 40 μL of Phosphate buffer solution was used instead of the NADPH solution as a negative control. The negative control was used to rule out the influence caused by the chemical stability of the compounds per se.
(§5) 4. The reaction system was added with 4 μL of 100 μM the compound of the present disclosure and Verapamil (the positive control compound) (DMSO as the vehicle), so that the reaction was initiated. The final concentration of the compound was 1 μM.
(§6) 5. At 0.5, 15, 30, 45 and 60 minutes, after being well mixed in a vortex oscillator, 50 μL of the incubated samples were taken out respectively, and the reaction was terminated with ice acetonitrile (4-fold) containing an internal standard. The samples were centrifuged at 3220 g for 45 minutes. After the centrifugation, 90 μL of the supernatants were transferred to a sample plate and mixed well with 90 μL of ultrapure water for LC-MS/MS analysis.
(§7) All data were calculated by Microsoft Excel software. Peak areas were determined from the extracted ion chromatograms. The in-vitro half-life (t1/2) of the parent drug was determined by the linear fitting of the natural logarithm of the elimination percentage of the parent drug versus time.
(§8) The in-vitro half-life (t1/2) was calculated from the slope: […]

[5] = Metabolic stability in liver microsomes (CD-1 mouse); type: in vitro ADME; conditions: pH 7.4; CD-1 mouse liver microsomes 0.5 mg/mL, compound 1 μM, NADPH 1 mM, 37° C.
Method: as §1, §2, §3, §4, §5, §6, §7, §8

Row | IC50 [1] [nM] | Drug Exposure [3] [µg·h/mL] | Max. Drug Conc. [3] [ng/mL] | Peak Time of Drug Conc. [3] [h] | half-life ([3]; mouse, plasma, read-out: Drug Elimination Half-life (converted)) [h] | half-life at 1 μM [4] [h] | half-life at 1 μM [5] [h] | SMILES | IC50 [2] [nM]
1 | 8 | 137.892 | 32840 | 0.75 | 5 |  |  | CC(C)OC(=O)NC1CCC(c2ncc(-c3ccc(Nc4cnn(C)c4)cc3S(=O)(=O)C3CC3)s2)CC1 (stereo not drawn) [Example 70, isopropyl trans-N-[4-[5-[2-cyclopropylsulfonyl]-4-[(1-methylpyrazol-4-yl)amino]phenyl]thiazol-2-yl]cyclohexyl]carbamate] | 21000
2 | 4 |  |  |  |  | 7.03 | 4.52 | CC(C)OC(=O)N[C@H]1CC[C@H](c2ncc(-c3ccc(Nc4cc(CO)[nH]n4)cc3S(=O)(=O)C3CC3)s2)CC1 [Example 72, isopropyl trans-(4-(5-(2-(cyclopropylsulfonyl)-4-((5-(hydroxymethyl)-1H-pyrazol-3-yl)amino)phenyl)thiazol-2-yl)cyclohexyl)carbamate] | 20000
3 | 7 |  |  |  |  | 1.12 | 1.87 | CC(C)OC(=O)NC1CCC(c2ncc(-c3ccc(Nc4cnn(CCO)c4)cc3S(=O)(=O)C3CC3)s2)CC1 (stereo not drawn) [Example 84, isopropyl trans-N-[4-[5-[2-cyclopropylsulfonyl]-4-[[1-(2-(hydroxyethyl)pyrazol-4-yl]amino]phenyl]thiazol-2-yl]cyclohexyl]carbamate] | > 25000
4 | 0.6 |  |  |  |  | 1.37 | 0.85 | CC(C)OC(=O)NC1CCC(c2ncc(-c3ccc(Nc4cnn(CCF)c4)cc3S(=O)(=O)C3CC3)s2)CC1 (stereo not drawn) [Example 85, isopropyl trans-N-[4-[5-[2-cyclopropylsulfonyl]-4-[[1-(2-fluoroethyl)pyrazol-4-yl]amino]phenyl]thiazol-2-yl]cyclohexyl]carbamate] | 17000
5 | 3 |  |  |  |  | 1.78 | 1.4 | CC(C)OC(=O)NC1CCC(c2ncc(-c3ccc(Nc4cnn(C5COC5)c4)cc3S(=O)(=O)C3CC3)s2)CC1 (stereo not drawn) [Example 86, isopropyl trans-N-[4-[5-[2-cyclopropylsulfonyl]-4-[[1-(oxetan-3-yl)pyrazol-4-yl]amino]phenyl]thiazol-2-yl]cyclohexyl]carbamate] | > 25000
